# Reference: patent publication US20120128667A1 (ONCOZYME PHARMA INC., priority 2009, published 2012)
# Values joined by “and” are separate entries in the source; they are usually repeats but may differ in a detail not shown here. Equal entries are not always repeated. “Also recorded” adds a separate entry of the source. Where two headings read alike, the source gives them in different places.
# What was measured:
# [1] = test system: H661 (lung cancer (carcinoma)); test: cells; conditions: for Percentage of cells killed: H661; for CC50: Homo sapiens
# Description: (§1) Cell Survival-MTT assay: The MTT (3-[4,5-Dimethylthiazol-2-yl]-2,5 diphenyl tertrazolim bromide) method of determining cell growth/cytotoxicity was used to determine cell survival. MTT is a tetrazolium salt that binds to b mitochondrial dehydrogenases of living cells. Binding converts yellow, water soluble MTT to an insoluble, purple formazan crystal. The crystals are solubilized with a 50% N,N-dimethylformamide (vol/vol), 20% SDS (wt/vol) solution (pH 4.7), and absorbance is determined at a wavelength of 570 nm. Unbound MTT is not detectable at this wavelength. The amount of bound MTT measured in the assay is proportional to the number of live cells present. (Niks and Otto 1990: “Towards an optimized MTT assay,” J. Immunol. Methods. 130, 149-151, Hussain et al. 1993; “A new approach for measurement of cytotoxicity using colorimetric assay,” J. Immunol. Methods. 160, 89-96).
# (§2) Cells were harvested from cell cultures using the standard protocol (Trypsin/EDTA). The cells (1000 to 5000 cells in 50 μl of solution depending on cell type used) were then plated and incubated overnight at 37° C. before the addition of the agent or combination of agents.) After 2 days of incubation at 37° C., 10 μl of a 5 mg/ml solution of MTT was then added to all the wells and to a media control well. The plates were further incubated for 4 hours. A 100 μl of MTT solubilization buffer was added and the plates were incubated overnight at 37° C. The plates were then read on the ELISA plate reader with absorbance at 570 nm and a reference at 630 nm.
# (§3) The effects of combinations were tested on three representative cancer cell lines: H661 (lung cancer (carcinoma)), MCF-7 (breast cancer (adenocarcinoma, pleural effusion)), and HT29 (colon cancer (adenocarcinoma, primary tumor)). Initial assays were carried out to determine the concentrations at which taxol, oxaliplatin, gemcitabine, or CPT 11 (also known as irinotecan) killed approximately 10% of the cells under investigation.
# [2] = test system: HT29 (colon cancer (adenocarcinoma, primary tumor)); test: cells; conditions: for Percentage of cells killed: HT29; for CC50: Homo sapiens
# Description: as §1, §2, §3
# [3] = test system: MCF-7 (breast cancer (adenocarcinoma, pleural effusion)); test: cells; conditions: for Percentage of cells killed: MCF7; for CC50: Homo sapiens
# Description: as §1, §2, §3
# metastatic colon cancer = test: Phase I/IIa clinical trial colon cancer (Example 3); format: in vivo, human; conditions: interim results; I.V. pentamidine Day -2 and Day -1 before chemotherapy cycle
# Text: (FOLFOX regimens contain oxaliplatin, FOLFIRI regimens contain CPT 11 also known as Irinotecan; and IROX regimens contain Irinotecan and Oxaliplatin). Patients may also receive bevacizumab (Avastin) as part of chemotherapy or cetuximab (Erbitux) or panitumumab (Vectibix). Twenty-two patients are enrolled to date.
# A further dose is being given on Day −1.
# Both dose escalation and treatment with pentamidine alone are at the discretion of the treating physician.
# Almost all patients will have previously failed on their current treatment or a combination thereof.
# [4] = test system: metastatic colorectal cancer (mCRC); test: Phase I/II trial of pentamidine with chemotherapy in previously treated mCRC (Example 5); format: in vivo, human
# [5] = test system: BxPC3 human pancreas xenograft; conditions: IP bi-weekly; Pentamidine 45 mg/kg, Gemcitabine 150 mg/kg
# Description: BxPC3 cells were transplanted subcutaneously into the flank of each animal as a suspension of tumor cells (5×10^6 cells in 0.1 mL in PBS) on Jan. […] Transplantation was performed under a laminar airflow hood. […] Animals were labeled using the “ear punching” method so that for each group, all 10 animals could be distinguished. Each group of 10 mice was housed in 2 separate cages of 5 mice each; animal numbers 1 to 5 were housed in Cage A and animal numbers 6 to 10 were housed in Cage B.
# Prior to every dosing injection, each animal was weighed and received their respective formulations. […] Mice in group 3 were treated intraperitoneally, bi-weekly (Tuesday-Friday) at 150 mg/kg with Gemcitabine for eleven weeks. […] The dose volume was 30 mL/kg for mice treated intraperitoneally.
# At termination, when the tumor volume of one of the mice in the group reached 1500 mm^3, the whole group was sacrificed, and animals were anaesthetized using isoflurane and sacrificed by cervical dislocation.
# [6] = repeated dosing; cited from earlier work
# [7] = injected slowly into patients; cited from earlier work
# [8] = 13 evaluable pts, first 2 cycles
# [9] = 13 evaluable pts, pentamidine before CTX
# [10] = per patient, NCI CTCAEv3, pentamidine + CTX
# [11] = preliminary analysis, pentamidine + CTX
structure (smiles),measurement,setting,value
"O=C1[O][Pt]2([NH][C@@H]3CCCC[C@H]3[NH]2)[O]C1=O [Oxaliplatin, oxaliplatin]",Percentage of cells killed,[1]; Oxaliplatin 0.25 μM alone,14%
same,Percentage of cells killed,[2]; Oxaliplatin 0.25 μM alone,10%
same,Percentage of cells killed,[3]; Oxaliplatin 0.25 μM alone,8%
N=C(N)c1ccc(OCCCCCOc2ccc(C(=N)N)cc2)cc1 [Pentamidine],Percentage of cells killed,[1]; Pentamidine 0.15 mM alone,50%
same,CC50,"[1]; NCI-H661, 48 h, read-out: LC50 of Pentamidine",150 µM
same,CC50,"[1]; NCI-H661, read-out: LC50 of Pentamidine With CPT11 (0.25 μM)",3 µM
same,CC50,"[1]; NCI-H661, read-out: LC50 of Pentamidine With Gemcitabine (0.26 μM)",27 µM
same,CC50,"[1]; NCI-H661, read-out: LC50 of Pentamidine With Oxaliplatin (0.25 μM)",3 µM
same,CC50,"[1]; NCI-H661, read-out: LC50 of Pentamidine with Taxol (2 μM)",7 µM
same,Percentage of cells killed,[2]; Pentamidine 0.15 mM alone,13%
same,CC50,"[2]; HT-29, 48 h, read-out: LC50 of Pentamidine",270 µM
same,CC50,"[2]; HT-29, read-out: LC50 of Pentamidine With CPT11 (0.25 μM)",12 µM
same,CC50,"[2]; HT-29, read-out: LC50 of Pentamidine With Gemcitabine (0.26 μM)",30 µM
same,CC50,"[2]; HT-29, read-out: LC50 of Pentamidine With Oxaliplatin (0.25 μM)",9 µM
same,CC50,"[2]; HT-29, read-out: LC50 of Pentamidine with Taxol (2 μM)",130 µM
same,CC50,"[3]; MCF7, 48 h, read-out: LC50 of Pentamidine",150 µM
same,CC50,"[3]; MCF7, read-out: LC50 of Pentamidine With CPT11 (0.25 μM)",26 µM
same,CC50,"[3]; MCF7, read-out: LC50 of Pentamidine With Gemcitabine (0.26 μM)",66 µM
same,CC50,"[3]; MCF7, read-out: LC50 of Pentamidine With Oxaliplatin (0.25 μM)",9 µM
same,CC50,"[3]; MCF7, read-out: LC50 of Pentamidine with Taxol (2 μM)",60 µM
same,Percentage of cells killed,[3]; Pentamidine 0.15 mM alone,50%
same,overall survival compared with best current therapy,metastatic colon cancer,significantly enhances overall survival
same,"DLT anorexia, share of pts",[4]; [8],8%
same,"DLT hyperglycaemia, share of pts",[4]; [8],8%
same,Grade 3/4 AEs attributed to pentamidine: hyperglycaemia,[4]; [9],23%
same,Grade 3/4 AEs attributed to pentamidine: hyperlipasemia,[4]; [9],15%
same,activity in mCRC that has progressed on standard lines of treatment (in words),[4]; Pentamidine & CTX,disease stabilizing activity
same,Reason for exiting the trial: Fatigue,[4]; initial 17 pts,12%
same,"Reason for exiting the trial: Fatigue, number of pts",[4]; initial 17 pts,2
same,Reason for exiting the trial: PD,[4]; initial 17 pts,35%
same,"Reason for exiting the trial: PD, number of pts",[4]; initial 17 pts,6
same,Reason for exiting the trial: Toxicity attributed to pentamidine,[4]; initial 17 pts,18%
same,"Reason for exiting the trial: Toxicity attributed to pentamidine, number of pts",[4]; initial 17 pts,3
same,Response at patient exit from trial: CR,[4]; initial 17 pts,0%
same,"Response at patient exit from trial: CR, number of pts",[4]; initial 17 pts,0
same,Response at patient exit from trial: PD,[4]; initial 17 pts,47%
same,"Response at patient exit from trial: PD, number of pts",[4]; initial 17 pts,8
same,Response at patient exit from trial: PR,[4]; initial 17 pts,0%
same,"Response at patient exit from trial: PR, number of pts",[4]; initial 17 pts,0
same,Response at patient exit from trial: SD,[4]; initial 17 pts,35%
same,"Response at patient exit from trial: SD, number of pts",[4]; initial 17 pts,6
same,Best response during treatment: CR,"[4]; initial 17 pts, RECIST",0%
same,"Best response during treatment: CR, number of pts","[4]; initial 17 pts, RECIST",0
same,Best response during treatment: PD,"[4]; initial 17 pts, RECIST",24%
same,"Best response during treatment: PD, number of pts","[4]; initial 17 pts, RECIST",4
same,Best response during treatment: PR,"[4]; initial 17 pts, RECIST",6%
same,"Best response during treatment: PR, number of pts","[4]; initial 17 pts, RECIST",1
same,Best response during treatment: SD,"[4]; initial 17 pts, RECIST",59%
same,"Best response during treatment: SD, number of pts","[4]; initial 17 pts, RECIST",10
same,Attribution to Pentamidine: Anorexia,[4]; per patient,possibly
same,Attribution to Pentamidine: Diarrhea,[4]; per patient,No (2×) and possibly
same,Attribution to Pentamidine: Elevated Lipase,[4]; per patient,posssibly; also recorded: definitely
same,Attribution to Pentamidine: Fainting/syncope,[4]; per patient,No
same,Attribution to Pentamidine: General deterioration,[4]; per patient,No
same,Attribution to Pentamidine: Hand-foot reaction,[4]; per patient,No
same,Attribution to Pentamidine: Neutropenia,[4]; per patient,possibly
same,Attribution to Pentamidine: Urinary tract infection,[4]; per patient,No
same,AE Grade: Anorexia,[4]; [10],3
same,AE Grade: Diarrhea,[4]; [10],3
same,AE Grade: Elevated Lipase,[4]; [10],3
same,AE Grade: Fainting/syncope,[4]; [10],3
same,AE Grade: General deterioration,[4]; [10],4
same,AE Grade: Hand-foot reaction,[4]; [10],3
same,AE Grade: Neutropenia,[4]; [10],3
same,AE Grade: Urinary tract infection,[4]; [10],3
same,toxicity of pentamidine with CTX (in words),[4]; preliminary analysis,consistent with known side effects of pentamidine; also recorded: manageable
same,Median OS time,[4]; [11],has not yet been reached
same,median PFS time,[4]; [11],4.4 months
same,"effect in the treatment of pancreatic cancer (tumor growth, FIG. 3)",[5],beneficial effect
same,time after final dose at which pentamidine was detected in tissue,[6],25 days
N.N.[Cl][Pt][Cl] [Cis-platinum],urinary excretion,[7],≤ 75%
"CCc1c2c(nc3ccc(OC(=O)N4CCC(N5CCCCC5)CC4)cc13)-c1cc3c(c(=O)n1C2)COC(=O)[C@]3(O)CC [CPT-11, camptothecin-11]",Percentage of cells killed,[1]; CPT-11 3.2 μM alone,14%
same,Percentage of cells killed,[2]; CPT-11 3.2 μM alone,6%
same,Percentage of cells killed,[3]; CPT-11 3.2 μM alone,30%
"Nc1ccn([C@@H]2O[C@H](CO)[C@@H](O)C2(F)F)c(=O)n1 [Gemcitabine, gemcitabine]",Percentage of cells killed,[1]; Gemcitabine 0.26 μM alone,25%
same,Percentage of cells killed,[2]; Gemcitabine 0.26 μM alone,23%
same,Percentage of cells killed,[3]; Gemcitabine 0.26 μM alone,23%
